From article PMC5770468, “Cardiac glycoside/aglycones inhibit HIV-1 gene expression by a mechanism requiring MEK1/2-ERK1/2 signaling” (Scientific Reports, 2018)
Like-named read-outs stand apart in the source and are kept apart here.

How the values were obtained:
Assay type in all cases: cell-based
[1] = tested on: clinical strains of HIV; experiment: microbe, parasite or virus in culture; details: for IC90 / IC50: Human immunodeficiency virus 1, PBMC, 336 h; for IC90: read-out: IC90, viral growth in HIV-infected PBMCs; for IC50: read-out: IC50 (nM) HIV-infected PBMCs
Protocol: PBMCs from HIV infected patients were depleted of CD8^+ T cells (Supplementary Fig. S3), activated by anti-CD3 and anti-CD28 antibodies, and treated 20 d with indicated concentrations of drug/compound. HIV particle formation was quantitated by p24^CA ELISA of cell supernatants and viability of cells were assayed by XTT. […] Graphs of viral growth (p24 protein levels) and cell viability (gray circles, adjacent y-axis) of cells treated with drug/compounds (red triangles) or DMSO (black circles) are shown. The drug 3TC and the CS digoxin (d–e) were provided for comparison. […] Dose-response curves of CS effects on HIV replication (relative Gag expression, black circles) and cell viability (gray circles) were measured on day 14.
PBMCs were then seeded to 24-well plates in the presence/absence of indicated drug/compounds (0.5 mL final) which were pre-diluted in RPMI^+++ in the same manner as described above. Every 3–4 days, ~0.25 mL of media was harvested for assays and replenished with ~0.25 mL of fresh medium with drug/compound and 20 U/mL of IL-2. HIV growth in cultures was monitored by p24^CA ELISA of cell supernatants harvested (detailed below) and the effect of compounds on cell viability were monitored by XTT assay.
(§1) To monitor HIV-1 gene expression or replication, Gag release into cell culture supernatants were assayed by ELISA using a p24^CA antigen capture assay kit (AIDS & Cancer Virus Program, NCI-Frederick, Frederick, MD USA). Media harvested from HIV clinical isolates were diluted ~10 fold (or as necessary) prior to performing this assay. For analysis of HIV-1 and SR protein expression (and phosphorylation states with calf intestinal alkaline phosphatase treatments), cells were lysed and analyzed by western blot as previously outlined. Phosphatase inhibitors (e.g. 10 mM sodium fluoride, 2 mM sodium orthovanadate) were added to solutions requiring phospho protein analyses. An anti-chicken NKA antibody (α6F, #a6F–c, Developmental Studies Hybridoma Bank, The University of Iowa, contributed by Douglas M. Fambrough, The Johns Hopkins University) was used as specified to detect NKA α1- and β1-subunits across species. […] Activation of MAPKs was determined by western blot quantitation and calculation of phospho/total protein levels. […] Images were exported as TIF files for assembly, rotation, and equal brightness/contrast adjustments in ImageJ or Microsoft Powerpoint. Some lanes were cropped and rearranged from the same blot/gel as indicated. In representative gel/blot sets, samples were electrophoresed from the same experiment as controls, resolved simultaneously on identically cast gel(s), transferred to same PVDF (by either wet electrophoretic or by Bio-Rad Trans-Blot® Turbo Transfer System), and detected at same time. Marked locations of molecular weight (MW) standards are shown on the left as a reference. […] SUnSET analysis of total cellular protein synthesis. HeLa rtTA-HIV-ΔMls cells were cultured in the presence/absence of compound and pathway inhibitor (if any) and Dox induced for ~24 h as already described, then treated with puromycin (10 μg/mL, Sigma-Aldrich, #P8833) for 30 min to label nascent proteins prior to harvest. As control, 10 µM of cycloheximide (Sigma-Aldrich, #C4849) was added to some cells prior to puromycin treatment. Cells were subsequently washed, whole cell lysates prepared, and proteins quantified by western blot using an anti-puromycin antibody (EMD Millipore, #anti-12D10) as described above. Transfection of plasmid DNA into cells. Transfection of pCMV6-HA-AKT-1 (WT, KM, or Myr) or CMV myc and with CMV tTA pA and CMV PLAP plasmids into HeLa rtTA-HIV-ΔMls cells were performed by polyethylene imine (PEI) transfection as previously described[9],[10].

[2] = tested on: HIV-1 US RNAs; experiment: FISH localization of HIV-1 US RNA in HeLa rtTA-HIV(Gag-GFP) cells; details: ~IC90s of CSs
Excerpt: Figure 4 CSs suppress HIV-1 gene expression by altering viral RNA processing. […] (a,b) CSs induce oversplicing of HIV-1 RNAs (n ≥ 3, mean, s.e.m.). (a) Diagram of the primer positions (arrow heads) used for qRT-PCR. (b) Graph of the relative amount of US (black), SS (white), and MS (gray) HIV-1 RNAs in cells treated with various CSs. (c) Nuclear export of HIV-1 US RNAs in cells is altered by CSs (representative n ≥ 4). HIV-1 US RNAs were localized by FISH after treating HeLa rtTA-HIV(Gag-GFP) cells as described above but with ~IC90s of CSs. Nuclei were stained by DAPI and images captured at 630 × magnification. (d) CSs induce differential post-translational modification of SR proteins (representative n ≥ 3). SRp20, Tra2β, and tubulin were analyzed by immunoblot of HeLa rtTA-HIV-ΔMls cells treated as described above except cells of this representative blot were treated 3 d with ~IC50s of CSs. (g) Lanes were cropped and assembled from the same gel/blot per box (Supplementary Fig. S4d).
RNA was extracted from cells, reverse transcribed, and resulting cDNAs subject to qRT-PCR quantification of HIV-1 mRNAs as previously described except reactions used iTaq™ Universal SYBR® Green Supermix (Bio-Rad, #172-5120) run on a Bio-Rad CFX384 Touch™ Real-Time PCR Detection System and analyzed with CFX Manager™[9]. NKA α1, 2, and 3 subunits were detected by published primers, amplified by iTaq using the same cycling temperature and times previously described for HIV-1 US/MS cDNAs except α1, 2, and 3 annealing temperatures were 61 °C[9],[73]. All data was normalized to β-actin as internal loading control. Primers sequences for NKA α subunits were as follows: α1 forward (5′-[…] -3′), α1 reverse (5′- […] -3′), α2 forward (5′-[…]-3′), α2 reverse (5′-[…]-3′), α3 forward (5′-[…]-3′), and α3 reverse (5′-GGGCAGACTCAGACGCATC-3′). Monitoring the subcellular localization of HIV-1 genomic RNA. HeLa rtTA-HIV(Gag-GFP) cells were seeded on cover slips, treated with drug/compound, and processed for FISH to detect HIV-1 US RNAs using Stellaris™ probes (Biosearch Technologies) as previously detailed[10],[11].

[3] = tested on: HIV-1 Rev; experiment: Immunoblot of HIV-1 Rev (p19) in HeLa rtTA-HIV-ΔMls cells
Protocol: as §1

[4] = p24CA ELISA, day 14, inferred near maximal IC50s

SMILES	IC90 ([1]; Day14, p24CA ELISA) [nM]	IC50 [1, 4] [nM]	HIV-1 US RNA subcellular localization [2]	concentration to inhibit viral replication in HIV-infected PBMCs, fold lower than serum concentration in patients treated for heart conditions [1]	Rev accumulation [3]	IC50 [1] [nM]	IC90 [1] [nM]
C[C@]12CC[C@H](O)C[C@H]1CC[C@@H]1[C@@H]2CC[C@]2(C)[C@@H](C3=CC(=O)OC3)CC[C@]12O [Digitoxigenin]	2	~1.1	Some residual cytoplasmic staining				
C[C@H]1O[C@@H](O[C@H]2[C@@H](O)C[C@H](O[C@H]3[C@@H](O)C[C@H](O[C@H]4CC[C@@]5(C)[C@H](CC[C@@H]6[C@@H]5CC[C@]5(C)[C@@H](C7=CC(=O)OC7)CC[C@]65O)C4)O[C@@H]3C)O[C@@H]2C)C[C@H](O)[C@@H]1O [Digitoxin]	7.5	~1.3	Some residual cytoplasmic staining	15–26 fold	no effect on Rev accumulation		
C[C@]12CC[C@H](O)C[C@H]1CC[C@@H]1[C@@H]2C[C@@H](O)[C@]2(C)[C@@H](C3=CC(=O)OC3)CC[C@]12O [Digoxigenin]			almost exclusively within the nucleus				
C[C@H]1O[C@@H](O[C@H]2[C@@H](O)C[C@H](O[C@H]3[C@@H](O)C[C@H](O[C@H]4CC[C@@]5(C)[C@H](CC[C@@H]6[C@@H]5C[C@@H](O)[C@]5(C)[C@@H](C7=CC(=O)OC7)CC[C@]65O)C4)O[C@@H]3C)O[C@@H]2C)C[C@H](O)[C@@H]1O [Digoxin]			almost exclusively within the nucleus		reduce Rev accumulation	~1.1	2
CC(=O)O[C@H]1C[C@H](O[C@H]2[C@@H](O)C[C@H](O[C@H]3[C@@H](O)C[C@H](O[C@H]4CC[C@@]5(C)[C@H](CC[C@@H]6[C@@H]5C[C@@H](O)[C@]5(C)[C@@H](C7=CC(=O)OC7)CC[C@]65O)C4)O[C@@H]3C)O[C@@H]2C)O[C@H](C)[C@H]1O[C@@H]1O[C@H](CO)[C@@H](O)[C@H](O)[C@H]1O [Lanatoside C]					reduce Rev accumulation		
C[C@@H]1O[C@@H](O[C@H]2C[C@@H](O)[C@]3(CO)[C@H]4[C@H](O)C[C@]5(C)[C@@H](C6=CC(=O)OC6)CC[C@]5(O)[C@@H]4CC[C@]3(O)C2)[C@H](O)[C@H](O)[C@H]1O [Ouabain]			Some residual cytoplasmic staining		no effect on Rev accumulation		
